Reference: patent US8993585B2, “Cyclic amine substituted pyrimidinediamines as PKC inhibitors” (Rigel Pharmaceuticals, Inc., priority 2007, dated 2015)

System: Human primary T cells
Test: IL-2 ELISA, Human Primary T Cell, Anti-CD3+CD28+ (Example 3)
Assay type: cell-based
Conditions: anti-CD3+CD28 stimulation, 24 hours
Method: Human primary T cell isolation and culture: Human primary T cells were prepared as follows. […] The cells at the serum:ficoll interface were recovered and washed twice with 5 volumes of PBS. […] The primary T-cells were then washed twice with PBS to remove the IL-2.
Primary T cell stimulation and IL2 ELISA: Human primary T cells (100,000 cells per well) were pre-incubated with or without test compound in Yssel's medium for 1 hr at 37° C. Cells were then stimulated by transferring them to round-bottom 96-well plates pre-coated with 1 ug/ml αCD3 and 5 μg/ml αCD28. For counter assay, cells were instead stimulated by adding 8× stock solutions of PMA and ionomycin in Yssels (for final concentrations of 0.5 ng/ml PMA and 0.1 uM ionomycin, both from Calbiochem).

Row | Molecule | IC50 [nM]
1 | 5-Fluoro-N2-(4-methyl-cyano)phenyl-N4-(1,2,2,5,5-pentamethylpyrrolidin-3-yl)-2,4-pyrimidinediamine [Compound I-278] | 1280
2 | Cc1cnc(Nc2ccc(S(N)(=O)=O)cc2)nc1NC1CC(C)(C)N(C)C(C)(C)C1 [Compound I-13] | 7680
3 | Cc1cnc(Nc2cccc(S(N)(=O)=O)c2)nc1NC1CC(C)(C)N(C)C(C)(C)C1 [Compound I-14] | 9840
4 | Cc1ccc(Nc2ncc(C)c(NC3CC(C)(C)N(C)C(C)(C)C3)n2)cc1S(N)(=O)=O [Compound I-15] | 6850
5 | COc1cc(Nc2ncc(C)c(NC3CC(C)(C)N(C)C(C)(C)C3)n2)cc(OC)c1OC [Compound I-16] | 5280
6 | Cc1cc(C)cc(Nc2ncc(C)c(NC3CC(C)(C)N(C)C(C)(C)C3)n2)c1 [Compound I-17] | 963
7 | CCN1CCN(c2ccc(Nc3ncc(C)c(NC4CC(C)(C)N(C)C(C)(C)C4)n3)cc2C)CC1 [Compound I-18] | 9440
8 | COc1cc(Nc2ncc(F)c(NC3CC(C)(C)N(C)C(C)(C)C3)n2)cc(OC)c1OC [Compound I-19] | 1230
9 | CN1C(C)(C)CC(Nc2nc(Nc3ccc(F)c(F)c3)ncc2F)CC1(C)C [Compound I-21] | 414
10 | CN1C(C)(C)CC(Nc2nc(Nc3ccc(C(N)=O)cc3)ncc2F)CC1(C)C [Compound I-23] | 1680
11 | CN1C(C)(C)CC(Nc2nc(Nc3cccc(C(N)=O)c3)ncc2F)CC1(C)C [Compound I-24] | 1520
12 | CN1C(C)(C)CC(Nc2nc(Nc3ccc(C#N)cc3)ncc2F)CC1(C)C [Compound I-25] | 4890
13 | COc1ccc(Nc2ncc(C)c(NC3CC(C)(C)N(C)C(C)(C)C3)n2)cc1Cl [Compound I-27] | 497
14 | Cc1cnc(Nc2ccc(C#N)c(Cl)c2)nc1NC1CC(C)(C)N(C)C(C)(C)C1 [Compound I-28] | 455
15 | Cc1cnc(Nc2ccc(N3CCN(C)CC3)c(Cl)c2)nc1NC1CC(C)(C)N(C)C(C)(C)C1 [Compound I-29] | 463
16 | Cc1cnc(Nc2ccc(N3CCN(C)CC3)c(C(F)(F)F)c2)nc1NC1CC(C)(C)N(C)C(C)(C)C1 [Compound I-30] | 335
17 | COc1ccc(Nc2ncc(C(F)(F)F)c(NC3CC(C)(C)N(C)C(C)(C)C3)n2)cc1Cl [Compound I-32] | 328
18 | CN1C(C)(C)CC(Nc2nc(Nc3ccc(C#N)c(Cl)c3)ncc2C(F)(F)F)CC1(C)C [Compound I-33] | 532
19 | CN1CCN(c2ccc(Nc3ncc(Cl)c(NC4CC(C)(C)N(C)C(C)(C)C4)n3)cc2Cl)CC1 [Compound I-36] | 83
20 | CN1CCN(c2ccc(Nc3ncc(Cl)c(NC4CC(C)(C)N(C)C(C)(C)C4)n3)cc2C(F)(F)F)CC1 [Compound I-37] | 511
21 | CN1CCN(c2c(F)cc(Nc3ncc(F)c(NC4CC(C)(C)N(C)C(C)(C)C4)n3)cc2F)CC1 [Compound I-40] | 461
22 | CCN1CCN(c2cc(Nc3ncc(F)c(NC4CC(C)(C)N(C)C(C)(C)C4)n3)ccc2Cl)CC1 [Compound I-41] | 2630
23 | COC(=O)N1CCN(c2cc(Nc3ncc(F)c(NC4CC(C)(C)N(C)C(C)(C)C4)n3)ccc2Cl)CC1 [Compound I-43] | 890

Row | Molecule | IC50 [nM]
24 | CN1CCN(C(=O)c2ccc(Nc3ncc(F)c(NC4CC(C)(C)N(C)C(C)(C)C4)n3)cc2Cl)CC1 [Compound I-44] | 2010
25 | CN1CCN(S(=O)(=O)c2ccc(Nc3ncc(F)c(NC4CC(C)(C)N(C)C(C)(C)C4)n3)cc2Cl)CC1 [Compound I-45] | 2370
26 | CN1C(C)(C)CC(Nc2nc(Nc3ccc(S(=O)(=O)N4CCNCC4)c(Cl)c3)ncc2F)CC1(C)C [Compound I-46] | 14300
27 | COC(=O)N1CCN(c2ccc(Nc3ncc(F)c(NC4CC(C)(C)N(C)C(C)(C)C4)n3)cc2C(F)(F)F)CC1 [Compound I-47] | 136
28 | CN1C(C)(C)CC(Nc2nc(Nc3ccc(N4CCN(S(C)(=O)=O)CC4)c(C(F)(F)F)c3)ncc2F)CC1(C)C [Compound I-48] | 39
29 | CC(=O)N1CCN(c2ccc(Nc3ncc(F)c(NC4CC(C)(C)N(C)C(C)(C)C4)n3)cc2C(F)(F)F)CC1 [Compound I-49] | 284
30 | CN1C(C)(C)CC(Nc2nc(Nc3ccc(N4CCC(F)(F)CC4)c(Cl)c3)ncc2F)CC1(C)C [Compound I-50] | 320
31 | CN1C(C)(C)CC(Nc2nc(Nc3ccc(N4CCC(F)(F)CC4)c(F)c3)ncc2F)CC1(C)C [Compound I-51] | 1010
32 | CN1CCN(Cc2ccc(Nc3ncc(F)c(NC4CC(C)(C)N(C)C(C)(C)C4)n3)cc2C(F)(F)F)CC1 [Compound I-52] | 133
33 | CN1CCN(c2ccc(Nc3ncc(F)c(NC4CC(C)(C)N(C)C(C)(C)C4)n3)cc2C(N)=O)CC1 [Compound I-53] | 1940
34 | CNC(=O)c1cc(Nc2ncc(F)c(NC3CC(C)(C)N(C)C(C)(C)C3)n2)ccc1N1CCN(C)CC1 [Compound I-54] | 3060
35 | COc1cc(Nc2ncc(F)c(NC3CC(C)(C)N(C)C(C)(C)C3)n2)ccc1N1CCN(C)CC1 [Compound I-55] | 1570
36 | CCCN1CCN(c2cc(Nc3ncc(F)c(NC4CC(C)(C)N(C)C(C)(C)C4)n3)ccc2Cl)CC1 [Compound I-56] | 2380
37 | CN1CCN(Cc2ccc(Nc3ncc(F)c(NC4CC(C)(C)N(C)C(C)(C)C4)n3)cc2Cl)CC1 [Compound I-57] | 364
38 | COc1ccc(Nc2ncc(F)c(N(C)C3CC(C)(C)N(C)C(C)(C)C3)n2)cc1Cl [Compound I-58] | 2000
39 | CN1CCN(c2ccc(Nc3ncc(F)c(N(C)C4CC(C)(C)N(C)C(C)(C)C4)n3)cc2C(F)(F)F)CC1 [Compound I-59] | 911
40 | CN1CCN(c2ccc(Nc3ncc(F)c(N(C)C4CC(C)(C)N(C)C(C)(C)C4)n3)cc2Cl)CC1 [Compound I-60] | 524
41 | CN1C(C)(C)CC(Nc2nc(Nc3ccc(N4CCN(S(C)(=O)=O)CC4)c(Cl)c3)ncc2F)CC1(C)C [Compound I-61] | 94
42 | COC(=O)N1CCN(c2ccc(Nc3ncc(F)c(NC4CC(C)(C)N(C)C(C)(C)C4)n3)cc2Cl)CC1 [Compound I-62] | 257
43 | CN1CCN(c2ccc(Nc3ncc(F)c(NC4CC(C)(C)N(C)C(C)(C)C4)n3)cc2CO)CC1 [Compound I-63] | 1850
44 | CN1CCN(C(=O)c2ccc(Nc3ncc(F)c(NC4CC(C)(C)N(C)C(C)(C)C4)n3)cc2C(F)(F)F)CC1 [Compound I-64] | 2600
45 | CN1CCN(c2cc(Nc3ncc(F)c(NC4CC(C)(C)N(C)C(C)(C)C4)n3)ccc2Cl)CC1 [Compound I-65] | 1980
46 | CN(c1nc(Nc2cccc(C#N)c2)ncc1F)C1CC(C)(C)N(C)C(C)(C)C1 [Compound I-66] | 1460

Row | Molecule | IC50 [nM]
47 | CC(=O)N1CCN(c2ccc(Nc3ncc(F)c(NC4CC(C)(C)N(C)C(C)(C)C4)n3)cc2Cl)CC1 [Compound I-67] | 346
48 | CN1C(C)(C)CC(Nc2nc(Nc3ccc(Cl)c(N4CCN(S(C)(=O)=O)CC4)c3)ncc2F)CC1(C)C [Compound I-68] | 589
49 | Cc1nccc(-c2cccc(Nc3ncc(F)c(NC4CC(C)(C)N(C)C(C)(C)C4)n3)c2)n1 [Compound I-69] | 2390
50 | COc1ccc(Nc2ncc([N+](=O)[O-])c(NC3CC(C)(C)N(C)C(C)(C)C3)n2)cc1Cl [Compound I-71] | 632
51 | CN1C(C)(C)CC(Nc2nc(Nc3cccc(C#N)c3)ncc2[N+](=O)[O-])CC1(C)C [Compound I-72] | 992
52 | CN1C(C)(C)CC(Nc2nc(Nc3ccc(N4CCN(S(C)(=O)=O)CC4)c(Cl)c3)ncc2[N+](=O)[O-])CC1(C)C [Compound I-73] | 665
53 | CN1CCN(c2ccc(Nc3ncc([N+](=O)[O-])c(NC4CC(C)(C)N(C)C(C)(C)C4)n3)cc2C(F)(F)F)CC1 [Compound I-74] | 657
54 | CN1C(C)(C)CC(Nc2nc(Nc3ccc(N4CCNCC4)c(C(F)(F)F)c3)ncc2[N+](=O)[O-])CC1(C)C [Compound I-75] | 11300
55 | CN1CCN(c2ccc(Nc3ncc([N+](=O)[O-])c(NC4CC(C)(C)N(C)C(C)(C)C4)n3)cc2Cl)CC1 [Compound I-76] | 596
56 | CN1C(C)(C)CC(Nc2nc(Nc3ccc(N4CCNCC4)c(Cl)c3)ncc2[N+](=O)[O-])CC1(C)C [Compound I-77] | 2590
57 | CN1C(C)(C)CC(Nc2nc(Nc3ccc(N4CCN(S(C)(=O)=O)CC4)c(C(F)(F)F)c3)ncc2[N+](=O)[O-])CC1(C)C [Compound I-78] | 928
58 | CN1C(C)(C)CC(Nc2nc(Nc3cccc(-c4ccncc4)c3)ncc2F)CC1(C)C [Compound I-79] | 552
59 | CCOC(=O)c1cnc(Nc2ccc(OC)c(Cl)c2)nc1NC1CC(C)(C)N(C)C(C)(C)C1 [Compound I-80] | 2690
60 | CCOC(=O)c1cnc(Nc2cccc(C#N)c2)nc1NC1CC(C)(C)N(C)C(C)(C)C1 [Compound I-81] | 28600
61 | CCOC(=O)c1cnc(Nc2ccc(N3CCN(C)CC3)c(C(F)(F)F)c2)nc1NC1CC(C)(C)N(C)C(C)(C)C1 [Compound I-82] | 3210
62 | CCOC(=O)c1cnc(Nc2ccc(N3CCN(S(C)(=O)=O)CC3)c(C(F)(F)F)c2)nc1NC1CC(C)(C)N(C)C(C)(C)C1 [Compound I-83] | 7760
63 | CCOC(=O)c1cnc(Nc2ccc(N3CCN(S(C)(=O)=O)CC3)c(Cl)c2)nc1NC1CC(C)(C)N(C)C(C)(C)C1 [Compound I-84] | 6850
64 | COc1ccc(Nc2ncc(C(N)=O)c(NC3CC(C)(C)N(C)C(C)(C)C3)n2)cc1Cl [Compound I-85] | 631
65 | CN1C(C)(C)CC(Nc2nc(Nc3cccc(C#N)c3)ncc2C(N)=O)CC1(C)C [Compound I-86] | 4990
66 | CN1C(C)(C)CC(Nc2nc(Nc3ccc(N4CCN(S(C)(=O)=O)CC4)c(C(F)(F)F)c3)ncc2C(F)(F)F)CC1(C)C [Compound I-88] | 287
67 | CCOC(=O)c1cnc(Nc2ccc(N3CCN(C)CC3)c(Cl)c2)nc1NC1CC(C)(C)N(C)C(C)(C)C1 [Compound I-89] | 5800
